Measured values as given in patent publication US10273461B2, “Employing human adipose-derived stem cells to propagate serum-derived hepatitis C virus and use thereof” (FRONTIER BIO-DRUG DEVELOPMENT LIMITED, priority 2015, dated 2019).

test system: HCVser-1b; test: Drug inhibition assay in HCVser-infected hADSC; type: cell-based, hepatitis C virus; conditions: p4-5 hADSC, graded concentrations, 21 days' cell lysates, qRT-PCR, IFNα as 16 h pretreatment

Row | Compound | HCV replication (viral 5'-UTR transcripts, fraction inhibition vs vehicle control)
1 | NC(=O)c1ncn([C@@H]2O[C@H](CO)[C@@H](O)[C@H]2O)n1 [ribavirin] | inhibited in a dose-responsive manner
2 | cyclosporine A | inhibited in a dose-responsive manner
3 | IFNα | inhibited in a dose-responsive manner
